The target in experiment [1] is T1, Recombinant active human Cyclin E/CDK2 complexes (Homo sapiens, UniProt P24941).
T1 construct: made in house; host or cells: insect cells
The experiment is described as follows: CDK2 FlashPlate Assay (inhibition of Rb phosphorylation). Type of experiment: biochemical. As to conditions: Cyclin E/CDK2, Rb substrate, 33P-ATP, 25 minutes at room temperature; read-out: Inhibition of Cdk2 - IC50 Range. How it is done:
To determine inhibition of CDK2 activity, purified recombinant retinoblastoma (Rb) protein was coated on 96 well FlashPlates (New England Nuclear, Boston, Mass.). Rb is a natural substrate for phosphorylation by CDK2 (Herwig and Strauss Eurr. J. Biochem., Vol. 246 (1997) pp. 581-601 and references therein). Recombinant active human Cyclin E/CDK2 complexes were partially purified from extracts of insect cells. The active Cyclin E/CDK2 was added to the Rb-coated FlashPlates along with ^33P-ATP and dilutions of test compounds. Plates were incubated for 25 minutes at room temperature with shaking, then washed and counted in the Topcount scintillation counter (Packard Instrument Co., Downers Grove, Ill.). Dilutions of test compounds were tested in duplicate in each assay. The percent inhibition of Rb phosphorylation, which is a measure of the inhibition of CDK2 activity, was determined according to the following formula: [formula] where “test compound” refers to the average counts per minute of the test duplicates, “nonspecific” refers to the average counts per minute when no Cyclin E/CDK2 was added, and “total” refers to the average counts per minute when no compound was added.

The test system of experiment [2] is colon adenocarcinoma line SW480. As to the kind of experiment: SW480 cell-based antiproliferative (MTT) assay. The note with it: Homo sapiens, SW480, 144 h, 1000 cells per well, 6 days post addition of test compound, read-out: Antiproliferative Activity SW480 (colon) Assay - IC50 Range. The method, then:
(§1) The estrogen receptor negative epithelial breast carcinoma line (MDA-MB-435) was purchased from American Type Cell Culture Collection (ATCC; Rockville, Md.) and was grown in the medium recommended by ATCC. For analysis of the effect of the test compounds on growth of these cells, the cells were plated at 2000 cells per well in a 96-well tissue culture plate, and were incubated overnight at 37° C. with 5% CO2. The next day, the test compounds were dissolved in 100% dimethyl sulfoxide (DMSO) to yield a 10 mM stock solution. Each compound was diluted with sterile medium to 1 mM in a sufficient quantity to yield a final concentration of 120 μM. The compounds were then serially diluted in medium with 1.2% DMSO. One-fourth final volume of the diluted compounds was transferred to 96 well plates. Test compounds were assayed in duplicate. DMSO was added to a row of “control cells” such that the final concentration of DMSO in each well was 0.3%. Wells to which no cells were added served as the “blank.” Wells to which no inhibitor was added served as “no inhibitor control”. The plates were returned to the incubator, and 5 days post addition of test compound, were analyzed as described below.
(§2) 3-(4,5-Dimethylthiazole-2-yl)-2,5-diphenyl-2H-tetrazolium bromide (thiazolyl blue; MTT) was added to each well to yield a final concentration of 1 mg/mL. The plates were then incubated at 37° C. for 3 hours. The plates were centrifuged at 1000 rpm for 5 minutes prior to aspiration of the MTT-containing medium. The MTT-containing medium was then removed and 100 μL 100% ethanol was added to each well to dissolve the resulting formazan metabolite. To ensure complete dissolution, plates were shaken for 15 minutes at room temperature. Absorbencies were read in a microtiter plate reader (Molecular Dynamics) at a wavelength of 570 nm with a 650 nm reference. Percent inhibition was calculated by subtracting the absorbance of the blank (no cell) wells from all wells, then subtracting the division of the average absorbance of each test duplicate by the average of the controls from 1.00. Inhibitory concentrations (IC50) were determined from the linear regression of a plot of the logarithm of the concentration versus the percent inhibition.
The colon adenocarcinoma line SW480 and the colon carcinoma line HCT-116 also were obtained from the ATCC and were tested according to the same protocol provided above for MDA-MB435 cell based assay with the following modifications. Cell line SW480 was plated at 1000 cells per well and analyzed at 6 days post addition of the test compound. Cell line HCT-116 was plated at 1000 cells per well and analyzed at 4 days post addition of test compound.

Experiment [3] concerns estrogen receptor negative epithelial breast carcinoma line (MDA-MB-435). The experiment is described as follows: MDA-MB-435 cell-based antiproliferative (MTT) assay. As to conditions: Homo sapiens, MDA-MB-435, 120 h, 2000 cells per well, 5 days post addition of test compound, read-out: Antiproliferative Activity of MDA-MB435 (breast) Assay - IC50 Range. The method, then:
as §1, §2

As for `Clc1ccc2c(c1)C(c1ccccc1Cl)=Nc1c[nH]nc1N2` [Compound A4, 5-(2-chlorophenyl)-7-chloro-pyrazolo[3,4][1,4]benzodiazepine], in experiment [1], the IC50 is 10 to 30 µM.
Still for that read-out and setting: for `Clc1ccc2c(c1)C(c1ccccc1)=Nc1c[nH]nc1N2` [Compound A6, 5-phenyl-7-chloro-pyrazolo[3,4][1,4]benzodiazepine] the value was 1 to 9.99 µM; for `Fc1ccccc1C1=Nc2c[nH]nc2Nc2ccc(Cl)cc21` [Compound A7, 5-(2-fluorophenyl)-7-chloro-pyrazolo[3,4][1,4]benzodiazepine], 1 to 9.99 µM.
In the case of `Fc1ccc2c(c1)C(c1ccccc1F)=Nc1c[nH]nc1N2` [Compound A11, 5-(2-fluorophenyl)-7-fluoro-pyrazolo[3,4][1,4]benzodiazepine], the IC50 was in the range of 10 to 30 µM in experiment [2] and 1 to 9.99 µM in experiment [1].
As to `O=[N+]([O-])c1ccc2c(c1)C(c1ccccc1C(F)(F)F)=Nc1c[nH]nc1N2` [Compound A17, 5-(2-trifluoromethylphenyl)-7-nitro-pyrazolo[3,4][1,4]benzodiazepine], the IC50 in experiment [1] lay within 0.01 to 0.99 µM.
Turning to `COC(=O)c1ccc2c(c1)C(c1ccccc1)=Nc1c[nH]nc1N2` [Compound A18, 5-phenyl-7-carbomethoxy-pyrazolo[3,4][1,4]benzodiazepine], the IC50 in experiment [1] lay in the range of 1 to 9.99 µM.
On the same count and under the same terms, for `Fc1ccccc1C1=Nc2c[nH]nc2Nc2ccc(I)cc21` [Compound A19, 5-(2-fluorophenyl)-7-iodo-pyrazolo[3,4][1,4]benzodiazepine] the value was 1 to 9.99 µM; for `CCOC(=O)c1ccc2c(c1)C(c1ccccc1F)=Nc1c[nH]nc1N2` [Compound A20, 5-(2-fluorophenyl)-7-carboethoxy-pyrazolo[3,4][1,4]benzodiazepine], 0.01 to 0.99 µM.
As for `CCOC(=O)c1[nH]nc2c1N=C(c1ccccc1Cl)c1cc([N+](=O)[O-])ccc1N2` [Compound B2, 3-carboethoxy-5-(2-chlorophenyl)-7-nitro-pyrazolo[3,4][1,4]benzodiazepine], the IC50 lay in the range of 1 to 9.99 µM in experiment [1] and 10 to 30 µM in experiment [3].
Regarding `CC(C)Cc1[nH]nc2c1N=C(c1ccccc1Cl)c1cc([N+](=O)[O-])ccc1N2` [Compound B11, 3-(2-methylpropyl)-5-(2-chlorophenyl)-7-nitro-pyrazolo[3,4][1,4]benzodiazepine], the IC50 in experiment [1] is 1 to 9.99 µM.
Regarding `O=[N+]([O-])c1ccc2c(c1)C(c1ccccc1Cl)=Nc1c(n[nH]c1C(F)(F)F)N2` [Compound B12, 3-trifluoromethyl-5-(2-chlorophenyl)-7-nitro-pyrazolo[3,4][1,4]benzodiazepine], the IC50 in experiment [1] is 0.01 to 0.99 µM; in experiment [3], 1.1 to 9.99 µM.
Take `O=[N+]([O-])c1ccc2c(c1)C(c1ccccc1Cl)=Nc1c(n[nH]c1-c1nccs1)N2` [Compound B13, 3-(1-thiazolyl)-5-(2-chlorophenyl)-7-nitro-pyrazolo[3,4][1,4]benzodiazepine]: the IC50 in experiment [1] fell in the range of 0.01 to 0.99 µM.
Consider `O=[N+]([O-])c1ccc2c(c1)C(c1ccccc1Cl)=Nc1c(n[nH]c1-c1c[nH]cn1)N2` [Compound B14, 3-(4-imidazolyl)-5-(2-chlorophenyl)-7-nitro-pyrazolo[3,4][1,4]benzodiazepine], for which the values for the IC50 in experiment [1] and in experiment [3] were 0.01 to 0.99 µM and 1.1 to 9.99 µM, respectively.
`O=[N+]([O-])c1ccc2c(c1)C(c1ccccc1Cl)=Nc1c(n[nH]c1-c1cc[nH]n1)N2` [Compound B15]: the IC50 in experiment [1] is 0.01 to 0.99 µM; in experiment [3], 10 to 30 µM.
For `CCC(C)c1[nH]nc2c1N=C(c1ccccc1Cl)c1cc([N+](=O)[O-])ccc1N2` (centres unmarked) [Compound B17, 3-(1-methylpropyl)-5-(2-chlorophenyl)-7-nitro-pyrazolo[3,4][1,4]benzodiazepine], the IC50 in experiment [1] lay within 0.01 to 0.99 µM.
Turning to `Cc1[nH]nc2c1N=C(c1ccccc1F)c1cc(F)ccc1N2` [Compound B26, 3-methyl-5-(2-fluorophenyl)-7-fluoro-pyrazolo[3,4][1,4]benzodiazepine], the IC50 in experiment [2] was in the range of 0.01 to 1 µM; in experiment [1], 0.01 to 0.99 µM.
On the same counts, the results for `Cc1[nH]nc2c1N=C(c1ccccc1)c1cc([N+](=O)[O-])ccc1N2` [Compound B27, 3-methyl-5-phenyl-7-nitro-pyrazolo[3,4][1,4]benzodiazepine] are 0.01 to 1 µM and 0.01 to 0.99 µM.
With `Cc1[nH]nc2c1N=C(c1ccccc1)c1ccccc1N2` [Compound B28, 3-methyl-5-phenyl-pyrazolo[3,4][1,4]benzodiazepine], the IC50 in experiment [1] was in the range of 0.01 to 0.99 µM.
As for `Cc1[nH]nc2c1N=C(c1ccccc1F)c1cc(Cl)ccc1N2` [Compound B32, 3-methyl-5-(2-fluorophenyl)-7-chloro-pyrazolo[3,4][1,4]benzodiazepine], the IC50 in experiment [2] was in the range of 1.1 to 9.99 µM; in experiment [1], 0.01 to 0.99 µM.
On the same counts, the results for `Cc1[nH]nc2c1N=C(c1ccccc1)c1cc(I)ccc1N2` [Compound B33, 3-methyl-5-phenyl-7-iodo-pyrazolo[3,4][1,4]benzodiazepine] are 10 to 30 µM and 1 to 9.99 µM.
For `O=C(c1ccc2c(c1)C(c1ccccc1F)=Nc1c[nH]nc1N2)N(CCO)CCO` [Compound C3, N,N-bis-(2-hydroxyethyl)-5-(2-fluorophenyl)-pyrazolo[3,4][1,4]benzodiazepine-7-carboxamide], the IC50 in experiment [1] is 1 to 9.99 µM.
Regarding `CC(C)c1[nH]nc2c1N=C(c1ccccc1Cl)c1cc(N)ccc1N2` [Compound C6, 3-(1-methylethyl)-5-(2-chlorophenyl)-7-amino-pyrazolo[3,4][1,4]benzodiazepine], the IC50 in experiment [1] fell in the range of 0.01 to 0.99 µM; in experiment [3], 1.1 to 9.99 µM.
In the case of `CN(C)C(=O)c1[nH]nc2c1N=C(c1ccccc1Cl)c1cc([N+](=O)[O-])ccc1N2` [Compound C11, N,N-dimethyl-5-(2-chlorophenyl)-7-nitro-pyrazolo[3,4][1,4]benzodiazepine-3-carboxamide], the IC50 in experiment [1] lay in the range of 1 to 9.99 µM.
With `Cc1[nH]nc2c1N=C(c1ccccc1F)c1cc(C(N)=O)ccc1N2` [Compound C19, 3-methyl-5-(2-fluorophenyl)-pyrazolo[3,4][1,4]benzodiazepine-7-carboxamide], the figures for the IC50 in experiment [2] and in experiment [1] were 0.01 to 1 µM and 0.01 to 0.99 µM, respectively.
On the same counts, the results for `Cc1[nH]nc2c1N=C(c1ccccc1C(F)(F)F)c1cc([N+](=O)[O-])ccc1N2` [Compound D2] are 0.01 to 1 µM and 0.01 to 0.99 µM.
In the case of `Cn1cccc1-c1[nH]nc2c1N=C(c1ccccc1Cl)c1cc([N+](=O)[O-])ccc1N2` [Compound D21], the IC50 in experiment [1] lay in the range of 1 to 9.99 µM.
As for `O=C(O)c1ccc2c(c1)C(c1ccccc1F)=Nc1c[nH]nc1N2` [Compound D22], in experiment [1], the IC50 was in the range of 1 to 9.99 µM.
Same read-out and setting: for `Cc1ccc(-c2[nH]nc3c2N=C(c2ccccc2Cl)c2cc([N+](=O)[O-])ccc2N3)cc1` [Compound D24] the value was 1 to 9.99 µM.
On the same count and under the same terms, for `Cc1ccc(-c2[nH]nc3c2N=C(c2ccccc2Cl)c2cc([N+](=O)[O-])ccc2N3)s1` [Compound D26] the value was 1 to 9.99 µM; for `CN(C)c1ccc(-c2[nH]nc3c2N=C(c2ccccc2Cl)c2cc([N+](=O)[O-])ccc2N3)cc1` [Compound D28], 1 to 9.99 µM.
The same measure, in the same setting: for `O=[N+]([O-])c1ccc2c(c1)C(c1ccccc1)=Nc1c(n[nH]c1-c1ncc[nH]1)N2` [Compound D34] the value was 1 to 9.99 µM; for `O=[N+]([O-])c1ccc2c(c1)C(c1ccccc1Cl)=Nc1c(n[nH]c1-c1ccccc1[N+](=O)[O-])N2` [Compound D39], 10 to 30 µM.

(Values after patent US6916923B2 (Hoffmann-La Roche Inc., priority 1999, dated 2005).)
